Test results published in US7202280B2, “Methods for the treatment and prevention of pancreatitis and for induction of liver regeneration” (priority 2002, dated 2007).

Test system: syngenic and metallothionein-SSAT mice
Experiment: Hepatic, pancreatic and renal polyamine concentration in syngenic and metallothionein-SSAT mice after analogue
Type: in vivo, mouse
Details: 24 h before sacrifice
Experimental: α-methylspermidine, Bis-α-methylspermine and α-methylspermine were administered in saline. […] The data are expressed as means ±S.D. For statistical analysis, the two-tailed Student's t test was used.

[1] = Tg (transgenic) mice, 12.5 mg/kg
[2] = Tg (transgenic) mice, 37.5 mg/kg

CC(N)CCNCCCCNCCC(C)N (stereo not drawn) [bis-α-methylspermine, 1,12-dimethylspermine]
pancreatic polyamine concentration, Spermidine (Sg (syngenic) mice, 50 mg/kg): 5613.06 ± 608.55 ^++ pmoles/mg tissue wet weight | pancreatic polyamine concentration, Spermine (Sg (syngenic) mice, 50 mg/kg): 561.50 ± 77.66 ^++ pmoles/mg tissue wet weight | renal concentration, Bis-α-Methylspermine (Sg (syngenic) mice, 50 mg/kg): 459.26 pmoles/mg tissue wet weight | renal polyamine concentration, N^8-Acetylspermidine (Sg (syngenic) mice, 50 mg/kg): 21.07 ± 5.81 pmoles/mg tissue wet weight | renal polyamine concentration, Putrescine (Sg (syngenic) mice, 50 mg/kg): 98.32 pmoles/mg tissue wet weight | renal polyamine concentration, Spermidine (Sg (syngenic) mice, 50 mg/kg): 248.63 pmoles/mg tissue wet weight | renal polyamine concentration, Spermine (Sg (syngenic) mice, 50 mg/kg): 424.06 pmoles/mg tissue wet weight | hepatic concentration, Bis-α-Methylspermine [1]: 29.55 pmoles/mg tissue wet weight | hepatic polyamine concentration, N^1-Acetylspermidine [1]: 226.74 pmoles/mg tissue wet weight | hepatic polyamine concentration, N^8-Acetylspermidine [1]: 9.43 pmoles/mg tissue wet weight | hepatic polyamine concentration, Putrescine [1]: 944.38 pmoles/mg tissue wet weight | hepatic polyamine concentration, Spermidine [1]: 792.81 pmoles/mg tissue wet weight | hepatic polyamine concentration, Spermine [1]: 104.48 pmoles/mg tissue wet weight | pancreatic polyamine concentration, N^1-Acetylspermidine [1]: 267.18 pmoles/mg tissue wet weight | pancreatic polyamine concentration, Putrescine [1]: 6168.51 ± 1253.00 pmoles/mg tissue wet weight | pancreatic polyamine concentration, Spermidine [1]: 3646.27 ± 367.99 pmoles/mg tissue wet weight | pancreatic polyamine concentration, Spermine [1]: 187.07 ± 5.15 pmoles/mg tissue wet weight | renal polyamine concentration, N^1-Acetylspermidine [1]: 19.74 pmoles/mg tissue wet weight | renal polyamine concentration, N^8-Acetylspermidine [1]: 16.35 ± 1.03 pmoles/mg tissue wet weight | renal polyamine concentration, Putrescine [1]: 184.32 pmoles/mg tissue wet weight | renal polyamine concentration, Spermidine [1]: 235.80 pmoles/mg tissue wet weight | renal polyamine concentration, Spermine [1]: 739.17 pmoles/mg tissue wet weight | hepatic concentration, Bis-α-Methylspermine (Tg (transgenic) mice, 25 mg/kg): 105.83 pmoles/mg tissue wet weight | hepatic polyamine concentration, N^1-Acetylspermidine (Tg (transgenic) mice, 25 mg/kg): 219.53 pmoles/mg tissue wet weight | hepatic polyamine concentration, N^8-Acetylspermidine (Tg (transgenic) mice, 25 mg/kg): 9.03 pmoles/mg tissue wet weight | hepatic polyamine concentration, Putrescine (Tg (transgenic) mice, 25 mg/kg): 895.27 pmoles/mg tissue wet weight | hepatic polyamine concentration, Spermidine (Tg (transgenic) mice, 25 mg/kg): 673.04 pmoles/mg tissue wet weight | hepatic polyamine concentration, Spermine (Tg (transgenic) mice, 25 mg/kg): 66.74 pmoles/mg tissue wet weight | pancreatic concentration, Bis-α-Methylspermine (Tg (transgenic) mice, 25 mg/kg): 315.13 ± 82.18 pmoles/mg tissue wet weight | pancreatic polyamine concentration, N^1-Acetylspermidine (Tg (transgenic) mice, 25 mg/kg): 474.31 pmoles/mg tissue wet weight | pancreatic polyamine concentration, N^8-Acetylspermidine (Tg (transgenic) mice, 25 mg/kg): 64.06 pmoles/mg tissue wet weight | pancreatic polyamine concentration, Putrescine (Tg (transgenic) mice, 25 mg/kg): 7573.46 ± 1084.90 pmoles/mg tissue wet weight | pancreatic polyamine concentration, Spermidine (Tg (transgenic) mice, 25 mg/kg): 3389.87 ± 447.32 pmoles/mg tissue wet weight | pancreatic polyamine concentration, Spermine (Tg (transgenic) mice, 25 mg/kg): 73.43 ± 6.82 pmoles/mg tissue wet weight | renal concentration, Bis-α-Methylspermine (Tg (transgenic) mice, 25 mg/kg): 315.13 pmoles/mg tissue wet weight | renal polyamine concentration, N^1-Acetylspermidine (Tg (transgenic) mice, 25 mg/kg): 25.57 pmoles/mg tissue wet weight | renal polyamine concentration, N^8-Acetylspermidine (Tg (transgenic) mice, 25 mg/kg): 17.52 ± 3.88 pmoles/mg tissue wet weight | renal polyamine concentration, Putrescine (Tg (transgenic) mice, 25 mg/kg): 137.26 pmoles/mg tissue wet weight | renal polyamine concentration, Spermidine (Tg (transgenic) mice, 25 mg/kg): 216.59 pmoles/mg tissue wet weight | renal polyamine concentration, Spermine (Tg (transgenic) mice, 25 mg/kg): 565.06 pmoles/mg tissue wet weight | hepatic concentration, Bis-α-Methylspermine [2]: 158.82 pmoles/mg tissue wet weight | hepatic polyamine concentration, N^1-Acetylspermidine [2]: 355.10 pmoles/mg tissue wet weight | hepatic polyamine concentration, N^8-Acetylspermidine [2]: 19.03 pmoles/mg tissue wet weight | hepatic polyamine concentration, Putrescine [2]: 1032.66 pmoles/mg tissue wet weight | hepatic polyamine concentration, Spermidine [2]: 404.05 pmoles/mg tissue wet weight | hepatic polyamine concentration, Spermine [2]: 74.10 pmoles/mg tissue wet weight | pancreatic concentration, Bis-α-Methylspermine [2]: 421.62 ± 147.44 pmoles/mg tissue wet weight | pancreatic polyamine concentration, N^1-Acetylspermidine [2]: 339.96 pmoles/mg tissue wet weight | pancreatic polyamine concentration, N^8-Acetylspermidine [2]: 90.85 pmoles/mg tissue wet weight | pancreatic polyamine concentration, Putrescine [2]: 8158.57 ± 2876.94 pmoles/mg tissue wet weight | pancreatic polyamine concentration, Spermidine [2]: 2268.60 ± 1821.72 pmoles/mg tissue wet weight | pancreatic polyamine concentration, Spermine [2]: 98.77 ± 82.83 pmoles/mg tissue wet weight | renal concentration, Bis-α-Methylspermine [2]: 421.62 pmoles/mg tissue wet weight | renal polyamine concentration, N^1-Acetylspermidine [2]: 27.37 pmoles/mg tissue wet weight | renal polyamine concentration, N^8-Acetylspermidine [2]: 16.82 ± 4.23 pmoles/mg tissue wet weight | renal polyamine concentration, Putrescine [2]: 225.66 pmoles/mg tissue wet weight | renal polyamine concentration, Spermidine [2]: 185.57 pmoles/mg tissue wet weight | renal polyamine concentration, Spermine [2]: 426.59 pmoles/mg tissue wet weight | hepatic concentration, Bis-α-Methylspermine (Tg (transgenic) mice, 50 mg/kg): 300.81 pmoles/mg tissue wet weight | hepatic polyamine concentration, N^1-Acetylspermidine (Tg (transgenic) mice, 50 mg/kg): 207.30 pmoles/mg tissue wet weight | hepatic polyamine concentration, N^8-Acetylspermidine (Tg (transgenic) mice, 50 mg/kg): 19.27 pmoles/mg tissue wet weight | hepatic polyamine concentration, Putrescine (Tg (transgenic) mice, 50 mg/kg): 717.95 pmoles/mg tissue wet weight | hepatic polyamine concentration, Spermidine (Tg (transgenic) mice, 50 mg/kg): 293.21 pmoles/mg tissue wet weight | hepatic polyamine concentration, Spermine (Tg (transgenic) mice, 50 mg/kg): 69.63 pmoles/mg tissue wet weight | pancreatic concentration, Bis-α-Methylspermine (Tg (transgenic) mice, 50 mg/kg): 400.64 ± 63.85 pmoles/mg tissue wet weight | pancreatic polyamine concentration, N^1-Acetylspermidine (Tg (transgenic) mice, 50 mg/kg): 288.51 pmoles/mg tissue wet weight | pancreatic polyamine concentration, Putrescine (Tg (transgenic) mice, 50 mg/kg): 5123.85 ± 573.32 pmoles/mg tissue wet weight | pancreatic polyamine concentration, Spermidine (Tg (transgenic) mice, 50 mg/kg): 2326.21 ± 126.42 pmoles/mg tissue wet weight | pancreatic polyamine concentration, Spermine (Tg (transgenic) mice, 50 mg/kg): 119.48 ± 37.92 pmoles/mg tissue wet weight | renal concentration, Bis-α-Methylspermine (Tg (transgenic) mice, 50 mg/kg): 400.64 pmoles/mg tissue wet weight | renal polyamine concentration, N^8-Acetylspermidine (Tg (transgenic) mice, 50 mg/kg): 12.21 ± 4.20 pmoles/mg tissue wet weight | renal polyamine concentration, Putrescine (Tg (transgenic) mice, 50 mg/kg): 173.97 pmoles/mg tissue wet weight | renal polyamine concentration, Spermidine (Tg (transgenic) mice, 50 mg/kg): 204.20 pmoles/mg tissue wet weight | renal polyamine concentration, Spermine (Tg (transgenic) mice, 50 mg/kg): 481.68 pmoles/mg tissue wet weight
